Test results: US6190849A, “Photographic element containing ballasted tetrazole derivative and inhibitor releasing coupler” (priority 1999, dated 2001)

Key:
[1] = Interimage in bilayer format: IDIR-6 in blue layer, IEM in green layer; details: for Cg /Cb+g (interimage): IEM or CIEM in green layer at 7.2×10^-3 mmol/m^2; for Relative Speed (green layer): IEM or CIEM in green layer, normalized to check
Procedure: (§1) Bilayer photographic elements were prepared by coating the following layers on a cellulose triacetate film support (coverages are in g/m^2). Unless otherwise noted, all comparative and inventive compounds were dispersed in twice their own weight of N,N-dibutyllauramide: […] Layer 3 (Interlayer): gelatin at 0.64, ILS-1 at 0.11 and FD-1 at 0.11. […] Layer 5 (Overcoat): gelatin at 2.79 and 0.02 bis-vinylsulfonemethylether. […] Contrast of the elements was determined using the maximum slope between any two density points. In this test, the ratio of the contrast of the green only exposure to the contrast of the green of a blue and green exposure (Cg /Cb+g) is a measure of the interimage. A higher ratio means more inhibition originating from the blue and affecting the green record. Relative speed of the green layer was determined by measuring the speed point +0.15 density units above Dmin and normalizing to the check position.

[2] = Interimage in bilayer format: IDIR-2 in blue layer, IEM in green layer; details: for Cg /Cb+g (interimage): IEM or CIEM in green layer at 7.2×10^-3 mmol/m^2, higher ratio = more interimage, no-IEM check; for Relative Speed (green layer): IEM or CIEM in green layer, speed point +0.15 density above Dmin, normalized to check
Procedure: as §1

[3] = Interimage in bilayer format: IDIR-1 in green layer, IEM in blue layer
Procedure: Samples of each element were given a stepped exposure of either green light only or blue and green light combined and processed in the KODAK FLEXICOLOR™ (C4 1) process as described in British Journal of Photography Annual, 1988, pp196-198. Contrast of the elements was determined using the maximum slope between any two density points. […] A higher ratio means more inhibition originating from the blue and affecting the green record. Relative speed of the green layer was determined by measuring the speed point +0.15 density units above Dmin and normalizing to the check position.
Additional bilayer elements were prepared in a manner similar to above by coating the following layers:
Layer 1 (Antihalation Layer): black colloidial elemental silver at 0.34 and gelatin at 2.41.
Layer 2 (Causer Layer): gelatin at 2.79, IDIR-1 at 0.054, coupler M-1 (dispersed as described previously) added at 0.045, and 0.81 green sensitized AgIBr tabular emulsion.
Layer 3 (Interlayer): gelatin at 0.64, ILS-1 at 0.11 and FD-1 at 0.11.
Layer 4 (Receiver Layer): gelatin at 2.79, coupler Y-2 at 1.08, IDIR-6 at 0.076, 0.79 blue sensitized AgIBr tabular emulsion and (when present) IEM-4 (dispersed as above) at 0.0023.
Layer 5 (Overcoat): gelatin at 2.79 and 0.02 bis-vinylsulfonemethylether.

[4] = Interimage in multilayer format (density change of receiver record); details: CDIR-1 in red
Description: Multilayer Film Example ML-1:
Layer 1 (Antihalation layer): black collodial silver sol at 0.135; ILS-1 at 0.162,
Layer 2 (Slow cyan layer): a blend of two red sensitized (both with a mixture of RSD-1 and RSD-2) tabular silver iodobromide emulsions: (i) 0.66×0.12, 4.1 mole % I at 0.302 (ii) 0.55×0.08, 1.5 mole % I at 0.464; cyan dye-forming coupler C-1 at 0.535; DIR coupler CDIR-1 at 0.027; bleach accelerator releasing coupler B-1 at 0.057; masking coupler MC-1 at 0.032; and gelatin at 1.68.
Layer 3 (Mid cyan layer): a blend of two red sensitized (same as above) tabular silver iodobromide emulsions: (i) […], 4.1 mole % I at 0.194 (ii) 1.07×0.11, 4.1 mole % I at 0.238; cyan coupler C-1 at 0.171; CDIR-1 at 0.019; MC-1 at 0.032; B-1 at 0.008; and gelatin at 1.08.
Layer 4 (Fast cyan layer): a red sensitized (same as above) tabular silver iodobromide emulsion (1.33×0.12, 4.1 mole % I) at 0.594; C-1 at 0.184; CDIR-1 at 0.027; MC-1 at 0.022; and gelatin at 0.918.
Layer 5 (Interlayer): ILS-1 at 0.086 and gelatin at 0.540.
Layer 6 (Slow magenta layer): a blend of two green sensitized (both with a mixture of GSD-1 and GSD-2) silver iodobromide emulsions: (i) 0.81×0.12, 2.6 mole % iodide at 0.346 and (ii) 0.55×0.08, 1.5 mole % iodide at 0.130; magenta dye forming coupler M-1 at 0.270; MC-2 at 0.086; IDIR-5 at 0.011; and gelatin at 1.08.
Layer 7 (Mid magenta layer): a blend of two green sensitized (same as above) tabular silver iodobromide emulsions (i) 1.22×0.11, 4.1 mole % I at 0.248 and (ii) 1.07×0.11, 4.1 mole % I at 0.248; M-1 at 0.124; MC-2 at 0.119; IDIR-5 at 0.043; OxDS-2 at 0.016; and gelatin at 1.22.
Layer 8 (Fast magenta layer): a green sensitized tabular silver iodobromide (1.33×0.12, 4.1 mole % I) emulsion at 0.486; M-1 at 0.076; MC-2 at 0.054; B-1 at 0.003; IDIR-5 at 0.015; OxDS-2 at 0.009; and gelatin at 1.02.
Layer 9 (Yellow filter layer): yellow filter dye FD-1 at 0.054; ILS-1 at 0.086; and gelatin at 0.648.
Layer 10 (Slow yellow layer): a blend of three blue sensitized (all with a mixture of BSD-1 and BSD-2) tabular silver iodobromide emulsions (i) 0.55×0.08, 1.5 mole % I at 0.270 (ii) […], 1.5 mole % I at 0.248 and (iii) 1.25×0.14, 4.1 mole % I at 0.400; yellow dye forming coupler Y-2 at 1.08; IDIR-6 at 0.076; CDIR-1 at 0.032; B-1 at 0.022; and gelatin at 1.879.
Layer 11 (Fast yellow layer): a blend of two blue sensitized (both with a mixture of BSD-1 and BSD-2) tabular silver iodobromide emulsions (i) 1.25×0.14, 4.1 mole % I at 0.108 (ii) 2.67×0.13, 4.1 mole % I at 0.378; Y-2 at 0.238; IDIR-6 at 0.076; B-1 at 0.005; and gelatin at 0.810.
Layer 12 (Protective overcoat and UV filter layer): silver bromide Lippman emulsion at 0.216; UV-1 at a total of 0.108; gelatin at 1.242 and bis(vinylsulfonyl)methane hardener at 1.75% of total gelatin weight.
Surfactants, coating aids, emulsion addenda, sequestrants, thickeners, lubricants, matte and tinting dyes were added to the appropriate layers as is common in the art. […]
These multilayer coatings were given a stepped exposure in one color record but only flashed (non-imagewise exposure) in the other two records and processed as described for the bilayer experiments. To monitor interimage, a step nearest to density of 1.5 in the stepped color record (the causer) was chosen, and the difference in density of the other color records (the receivers) at that step and at the no exposure step of the causer was determined. […]

[5] = ML-4: IEM-4 in green, IDIR-2 in blue

CCCCCCCOC(=O)C(CCSC)n1nn[nH]c1=S (racemic) [IEM-4]
Cg /Cb+g (interimage) [1]: 1.35 | Relative Speed (green layer) [1]: 0.94 | Cg /Cb+g (interimage) [2]: 1.62 | Relative Speed (green layer) [2]: 0.96 | Cb /Cb+g (interimage) ([3]; IEM-4 in blue layer at 0.0023 g/m^2): 1.57 | Relative Speed ([3]; IEM-4 in blue layer at 0.0023 g/m^2, normalized to check): 0.98 | R→G density difference (interimage) ([4]; ML-3: IEM-4 in green, IDIR-6 in blue): -0.206 | B→G density difference (interimage) ([4]; ML-3: IEM-4 in green, IDIR-6 in blue, more negative = increased interimage): -0.129 | B→G density difference (interimage) [4, 5]: -0.212 | R→G density difference (interimage) [4, 5]: -0.238

CC(=O)Nc1cccc(-n2nn[nH]c2=S)c1 [CIEM-1]
Cg /Cb+g (interimage) [1]: 1.16 | Relative Speed (green layer) [1]: 1.01 | Cg /Cb+g (interimage) [2]: 1.19 | Relative Speed (green layer) [2]: 1.01
